Results as given in patent EP0392384B1, “Targeted forms of methyltrithio antitumor agents” (AMERICAN CYANAMID COMPANY, priority 1989, dated 1990).

Columns and labels:
[1] = tested on: lymphocytic leukemia P388; assay: Lymphocytic Leukemia P388 Test; format: in vivo, BDF1 female mice; details: for T/Cx100 %: survival time treated/control
From the text: These have been reported in "Cancer Chemotherapy Reports", Part III, Vol. 3, No. 2 (1972), Geran, et. al. These protocols have established standardized screening tests which are generally followed in the field of testing for antitumor agents. Of these systems, lymphocytic leukemia P388, melanotic melanoma B16, L1210 leukemia and colon 26 adenocarcinoma are particularly significant to the present invention. These neoplasms are utilized for testing as transplantable tumors in mice.
The animals used were BDF1 female mice. There were 5 or 6 mice per test group. The tumor transplant was by intraperitoneal injection of 0.5 ml of dilute ascitic fluid containing 1 x 10^6 cells of lymphocytic leukemia P388 on day zero. The test compounds were administered intraperitoneally at a volume of 0.5 ml in sterile, pyrogen free saline on days 1, 5 and 9 (relative to tumor inoculation) at the indicated doses. The mice were weighed and survivors recorded on a regular basis for 30 days. The median survival time and the ratio of survival time for treated (T)/control (C) animals were calculated. Values of T/C greater than or equal to 125 are considered to reflect significant antitumor activity.

[2] = tested on: human colon cancer cell line LS174T; assay: In vivo antitumor test, human tumor xenograft LS174T; design: species or system athymic (nude) mice; details: no MoAb, iv, three injections started on day 8, day 21 post-implantation
[3] = tested on: human breast cancer cell line MX-1; assay: In vivo antitumor test, human tumor xenograft MX-1; design: species or system athymic (nude) mice; details: no MoAb, iv, three injections starting on day 2, day 42 post-implantation
[4] = tested on: human Burkitt lymphoma cell line Raji TC; assay: In vivo antitumor test, human tumor xenograft Raji; design: species or system athymic (nude) mice; details: no MoAb, iv, three injections starting on day 7, day 35 post-implantation
[5] = dose 0.0006 mg/kg intraperitoneally on days 1, 5 and 9
[6] = dose 0.00125 mg/kg intraperitoneally on days 1, 5 and 9
[7] = dose 0.0025 mg/kg intraperitoneally on days 1, 5 and 9
[8] = dose 0.005 mg/kg intraperitoneally on days 1, 5 and 9
[9] = dose 0.0003 mg/kg intraperitoneally on days 1, 5 and 9
[10] = dose 0.010 mg/kg intraperitoneally on days 1, 5 and 9
[11] = dose 0.020 mg/kg intraperitoneally on days 1, 5 and 9
[12] = dose 0.040 mg/kg intraperitoneally on days 1, 5 and 9
[13] = dose 0.080 mg/kg intraperitoneally on days 1, 5 and 9

“3-Mercaptobutyryl hydrazide disulfide of LL-E33288γ1-I” was tested. Which “Median Survival” value [1, 5] did it give?
Its value is 19.5 days.

And the T/Cx100 % [1, 5]?
Its T/Cx100 % is 130%.

What about the “Median Survival” value [1, 6] of the same compound?
Its value is 21.0 days.

What about the T/Cx100 % [1, 6] of the same compound?
The T/Cx100 % was 140%.

And the “Median Survival” value [1, 7]?
Its value is 23.0 days.

And the T/Cx100 % [1, 7]?
The T/Cx100 % was 153%.

What about the “Median Survival” value [1, 8] of the same compound?
Its value is 28.5 days.

And the T/Cx100 % [1, 8]?
The T/Cx100 % was 190%.

Which “Median Survival” value [1, 9] does the source give for “3-Mercaptoisovaleryl hydrazide disulfide of LL-E33288q1-I” here?
The value was 14.0 days.

What about the T/Cx100 % [1, 9] of the same compound?
Its T/Cx100 % is 133%.

What about the “Median Survival” value [1, 5] of the same compound?
The value was 13.0 days.

And the T/Cx100 % [1, 5]?
The T/Cx100 % was 124%.

What about the “Median Survival” value [1, 6] of the same compound?
The value was 16.0 days.

And the T/Cx100 % [1, 6]?
Its T/Cx100 % is 152%.

And the “Median Survival” value [1, 7]?
The value was 17.0 days.

What about the T/Cx100 % [1, 7] of the same compound?
The T/Cx100 % was 162%.

What about the “Median Survival” value [1, 8] of the same compound?
The value was 18.0 days.

What about the T/Cx100 % [1, 8] of the same compound?
Its T/Cx100 % is 171%.

And the “Median Survival” value [1, 10]?
The value was 26.5 days.

What about the T/Cx100 % [1, 10] of the same compound?
The T/Cx100 % was 252%.

With “3-Mercaptopropionic Acid Disulfide of LL-E33288γ1^I” as the compound, how does the T/Cx100 % [1, 7] read?
Its T/Cx100 % is 125%.

And the T/Cx100 % [1, 8]?
The T/Cx100 % was 145%.

“3-Mercaptopropionyl hydrazide disulfide of LL-E33288α2-I” was tested. Which “Median Survival” value [1, 6] did it give?
Its value is 18.5 days.

And the T/Cx100 % [1, 6]?
The T/Cx100 % was 161%.

And the “Median Survival” value [1, 7]?
Its value is 18.5 days.

And the T/Cx100 % [1, 7]?
Its T/Cx100 % is 161%.

And the “Median Survival” value [1, 8]?
The value was 21.0 days.

What about the T/Cx100 % [1, 8] of the same compound?
Its T/Cx100 % is 183%.

What about the “Median Survival” value [1, 10] of the same compound?
The value was 26.5 days.

What about the T/Cx100 % [1, 10] of the same compound?
Its T/Cx100 % is 230%.

Which “Median Survival” value [1, 11] does the source give for “3-Mercaptopropionyl hydrazide disulfide of N-acetyl LL-E33288γ1^I” here?
The value was 15.0 days.

What about the T/Cx100 % [1, 11] of the same compound?
Its T/Cx100 % is 125%.

What about the “Median Survival” value [1, 12] of the same compound?
The value was 18.0 days.

And the T/Cx100 % [1, 12]?
The T/Cx100 % was 150%.

What about the “Median Survival” value [1, 13] of the same compound?
Its value is 21.0 days.

What about the T/Cx100 % [1, 13] of the same compound?
Its T/Cx100 % is 175%.

For `CC[C@]1(O)C[C@H]2CN(CCc3c([nH]c4ccccc34)[C@@](C(=O)OC)(c3cc4c(cc3OC)N(C=O)[C@H]3[C@@](O)(C(=O)OC)[C@H](OC(C)=O)[C@]5(CC)C=CCN6CC[C@]43[C@@H]65)C2)C1` [Vincristine], which S/T ([2]; Drug 20 mcg) is on record?
The S/T was 6/6.

And the “Tumor Size (T/C)%control” value ([2]; Drug 20 mcg)?
Its value is 23 %control.

Which S/T ([3]; Drug 2.0 mcg) does the source give for “Hydrazide of 3-mercaptopropionic acid disulfide of N-acetyl LL-E33288δ1^I [Hydrazide alone]” here?
The S/T was 3/6.

And the “Tumor Size (T/C)%control” value ([3]; Drug 2.0 mcg)?
The value was 71 %control.

And the S/T ([4]; Drug 1.0 mcg)?
Its S/T is 6/6.

What about the “Tumor Size (T/C)%control” value ([4]; Drug 1.0 mcg) of the same compound?
Its value is 517 %control.

Which results are given for “N-acetyl LL-E33288δ1^I [reference compound]”?
S/T ([3]; Drug 1.0 mcg): 2/6; Tumor Size (T/C)%control ([3]; Drug 1.0 mcg): 46 %control; S/T ([2]; Drug 2.0 mcg): 1/6; Tumor Size (T/C)%control ([2]; Drug 2.0 mcg): 32 %control; S/T ([4]; Drug 0.5 mcg): 6/6; Tumor Size (T/C)%control ([4]; Drug 0.5 mcg): 226 %control
